Patent US20250186448A1 (Mezzion Pharma Co., Ltd., priority 2021, published 2025)

Test system: adolescents with Fontan physiology
Experiment: FUEL trial: echocardiographic myocardial performance index (MPI), blood pool Doppler
Format: in vivo, human
Text: Generally speaking, MPI (also referred to as the Doppler-derived index or Tei Index) is a measure of ventricular systolic and diastolic function as determined by a focused echocardiogram. It combines systolic and diastolic time intervals to assess heart function. More specifically, MPI can be used to assess ventricular performance represented by a numeric value using cardiac time intervals. This numeric value equals the sum of isovolumetric contraction time (ICT) and isovolumetric relaxation time (IRT) divided by ejection time (ET) and can be determined for either the left or right ventricle. Pellett, A. A., et al.: The Tei Index: Methodology and Disease. State Values. Echocardiography: A Jrnl. of CV Ultrasound & Allied Tech. 21(7):669-672 (2004); and Uluçay, A., Tatli E.: Myocardial performance index. Anadolu Kardiyol Derg. 8(2):143-8 (April, 2008), both of which are incorporated herein by reference in their entireties. In the FUEL Trial, the MPI measured the performance of the single functioning ventricle. Thus, the MPI results from the FUEL Trial were determined by velocities obtained from blood pool Doppler assessment of the inflow and outflow tract of the functioning single ventricle. In other words, the FUEL Trial MPI was determined by measuring the cardiac time intervals using pulsed-wave Doppler velocity spectra of the ventricular inflow and outflow of the single functioning ventricle.
Echocardiograms were performed by sonographers with specific training for this protocol. The primary outcome of interest was MPI using Doppler-based measures of inflow and outflow duration. The duration of inflow into the dominant ventricle and outflow across the dominant semilunar valve were measured and used to calculate MPI using the standard formula. Tei C, Ling L H, Hodge D O, et al.: New index of combined systolic and diastolic myocardial performance: a simple and reproducible measure of cardiac function—a study in normal and dilated cardiomyopathy. J Cardiol, 26(6):357-66 (1995); and Pellet A A et al.: The Tei Index: Methodology and Disease State Values. Echocardiography: A Jrnl Of CV Ultrasound & Allied Tech, 21(7):669-672 (2004). Additional tissue Doppler images were obtained and used to calculate the tissue Doppler based MPI as previously described. Harada K, Tamura M, Toyono M et al.: Comparison of the right ventricular Tei index by tissue Doppler imaging to that obtained by pulsed Doppler in children without heart disease. Am J Cardiol, 90(5):566-9 (2002). Whenever possible, three measurements were made and the mean duration was used for the calculation.
The primary outcome was the change in oxygen consumption at peak exercise (max or peak VO2) from baseline to the 26-week visit. Secondary exercise outcomes included change in additional measures at maximal exertion, as well as change in measures of submaximal exercise at the ventilatory anaerobic threshold (VAT). […] Safety was monitored through adverse event reports, which were collected according to a pre-specified protocol of study coordinator outreach, and through ad hoc patient and family communication with members of the study team at each site.
Each subject underwent an echocardiogram at the start and finish of the 26 weeks. […] The change in the MPI was determined by velocities obtained from blood pool Doppler assessment of the inflow and outflow tract of the single functioning dominant ventricle. […]

## CCCOc1ccc(S(=O)(=O)NCCC2CCCN2C)cc1-c1nc2c(CCC)nn(C)c2c(=O)[nH]1 (centres unmarked) [Udenafil, udenafil]
87.5 mg twice daily, paired data, decrease shows improvement, p 0.028 vs placebo
  MPI difference, Week 26 - Baseline, mean: 122: −0.02
Baseline, p 0.818
  MPI, LS Mean Dif A − B (udenafil − placebo): −0.0
Week 26, p 0.024
  MPI, LS Mean Dif A − B (udenafil − placebo): −0.04
P 0.028
  MPI, LS Mean Dif A − B (udenafil − placebo) of difference Week 26 - Baseline: −0.03
p=0.028
  MPI, udenafil treated group compared to placebo: statistically significant improvement
